Experimental data: patent US8791145B2, “Agricultural formulations with acyl morpholines and polar aprotic co-solvents” (Akzo Nobel Chemicals International B.V., priority 2010, dated 2014)

Key:
[1] = Solubility in acyl morpholines; format: physicochemical; conditions: 23° C.
Method: Various agriculturally active ingredients were dissolved in N-formyl morpholine, N-acetyl morpholine and N-propionyl morpholine in order to evaluate the solubility of the active ingredients in the solvents. This was done by adding the active ingredient to a beaker and thereafter adding the solvent until a clear solution was obtained. The solutions were continually stirred at a temperature of 23° C. during the experiments. When everything had been dissolved, the beakers were left without stirring for 24 h to see if the solution was stable (i.e. no crystallization).

[2] = Literature value from Adjuvant Newsletter; cited from earlier work
[3] = Dilution of Imidacloprid formulation in water, ocular inspection; format: physicochemical; set-up: key: +: easily dissolved; −: permanent crystals; NS: Non soluble; conditions: 200 g/l diluted to 0.4 g/l
Excerpt: Formulations containing 200 g/l of Imidacloprid was formulated together with 40 g/l of an alcohol ethoxylate (2-propylheptanol ethoxylated with 8 moles of EO per mole of alcohol) and diluted to a final volume of one liter with each one of the solvents N-formyl morpholine, N-acetyl morpholine and N-propionyl morpholine along with a co-solvent. The co-solvents used were dimethylsulfoxide (DMSO), propylene carbonate (PC), dimethylformamide (DMF) and ethyl lactate (EL). Ethyl lactate is a protic solvent and is included in the experiment for comparison. The amount of each co-solvent, in % by weight of the total weight of morpholine and co-solvent, is seen in table 2. The solutions was diluted in water to an end concentration of imidacloprid of 0.4 g/l and the dilution was judged by ocular inspection with the naked eye, and in the table below, the following is used: • +: easily dissolved, • −: permanent crystals. • NS: Non soluble

O=[N+]([O-])NC1=NCCN1Cc1ccc(Cl)nc1 [Imidacloprid]
Dissolution of active ingredient into N-acetyl morpholine (NAM) ([1]; NAM): 26 grams of active ingredient in 100 g solvent | Dissolution of active ingredient into N-formyl morpholine (NFM) ([1]; NFM): 30 grams of active ingredient in 100 g solvent | Dissolution of active ingredient into N-propionyl morpholine (NPM) ([1]; NPM): 19 grams of active ingredient in 100 g solvent | Dissolution of active ingredient into Lactic acid dimethyl amide [2]: 14 grams of active ingredient in 100 g solvent | Crystallization upon dilution in water ([3]; NAM, 0% DMF): − | Crystallization upon dilution in water ([3]; NAM, 0% DMSO): − | Crystallization upon dilution in water ([3]; NAM, 0% EL): − | Crystallization upon dilution in water ([3]; NAM, 0% PC): − | Crystallization upon dilution in water ([3]; NAM, 5% DMF): − | Crystallization upon dilution in water ([3]; NAM, 5% DMSO): − | Crystallization upon dilution in water ([3]; NAM, 5% EL): − | Crystallization upon dilution in water ([3]; NAM, 5% PC): − | Crystallization upon dilution in water ([3]; NAM, 10% DMF): − | Crystallization upon dilution in water ([3]; NAM, 10% DMSO): − | Crystallization upon dilution in water ([3]; NAM, 10% EL): NS | Crystallization upon dilution in water ([3]; NAM, 10% PC): − | Crystallization upon dilution in water ([3]; NAM, 15% DMF): − | Crystallization upon dilution in water ([3]; NAM, 15% DMSO): + | Crystallization upon dilution in water ([3]; NAM, 15% EL): NS | Crystallization upon dilution in water ([3]; NAM, 15% PC): − | Crystallization upon dilution in water ([3]; NAM, 20% DMF): + | Crystallization upon dilution in water ([3]; NAM, 20% DMSO): + | Crystallization upon dilution in water ([3]; NAM, 20% EL): NS | Crystallization upon dilution in water ([3]; NAM, 20% PC): NS | Crystallization upon dilution in water ([3]; NAM, 25% DMF): + | Crystallization upon dilution in water ([3]; NAM, 25% DMSO): + | Crystallization upon dilution in water ([3]; NAM, 25% EL): NS | Crystallization upon dilution in water ([3]; NAM, 25% PC): NS | Crystallization upon dilution in water ([3]; NAM, 30% DMF): + | Crystallization upon dilution in water ([3]; NAM, 30% DMSO): + | Crystallization upon dilution in water ([3]; NAM, 30% EL): NS | Crystallization upon dilution in water ([3]; NAM, 30% PC): NS | Crystallization upon dilution in water ([3]; NAM, 50% DMF): + | Crystallization upon dilution in water ([3]; NAM, 50% DMSO): + | Crystallization upon dilution in water ([3]; NAM, 50% EL): NS | Crystallization upon dilution in water ([3]; NAM, 50% PC): NS | Crystallization upon dilution in water ([3]; NAM, 95% DMF): + | Crystallization upon dilution in water ([3]; NAM, 95% DMSO): + | Crystallization upon dilution in water ([3]; NAM, 95% EL): NS | Crystallization upon dilution in water ([3]; NAM, 95% PC): NS | Crystallization upon dilution in water ([3]; NFM, 0% DMF): − | Crystallization upon dilution in water ([3]; NFM, 0% DMSO): − | Crystallization upon dilution in water ([3]; NFM, 0% EL): − | Crystallization upon dilution in water ([3]; NFM, 0% PC): − | Crystallization upon dilution in water ([3]; NFM, 5% DMF): − | Crystallization upon dilution in water ([3]; NFM, 5% DMSO): − | Crystallization upon dilution in water ([3]; NFM, 5% EL): − | Crystallization upon dilution in water ([3]; NFM, 5% PC): − | Crystallization upon dilution in water ([3]; NFM, 10% DMF): − | Crystallization upon dilution in water ([3]; NFM, 10% DMSO): + | Crystallization upon dilution in water ([3]; NFM, 10% EL): NS | Crystallization upon dilution in water ([3]; NFM, 10% PC): − | Crystallization upon dilution in water ([3]; NFM, 15% DMF): + | Crystallization upon dilution in water ([3]; NFM, 15% DMSO): + | Crystallization upon dilution in water ([3]; NFM, 15% EL): NS | Crystallization upon dilution in water ([3]; NFM, 15% PC): + | Crystallization upon dilution in water ([3]; NFM, 20% DMF): + | Crystallization upon dilution in water ([3]; NFM, 20% DMSO): + | Crystallization upon dilution in water ([3]; NFM, 20% EL): NS | Crystallization upon dilution in water ([3]; NFM, 20% PC): + | Crystallization upon dilution in water ([3]; NFM, 25% DMF): + | Crystallization upon dilution in water ([3]; NFM, 25% DMSO): + | Crystallization upon dilution in water ([3]; NFM, 25% EL): NS | Crystallization upon dilution in water ([3]; NFM, 25% PC): + | Crystallization upon dilution in water ([3]; NFM, 30% DMF): + | Crystallization upon dilution in water ([3]; NFM, 30% DMSO): + | Crystallization upon dilution in water ([3]; NFM, 30% EL): NS | Crystallization upon dilution in water ([3]; NFM, 30% PC): NS | Crystallization upon dilution in water ([3]; NFM, 50% DMF): + | Crystallization upon dilution in water ([3]; NFM, 50% DMSO): + | Crystallization upon dilution in water ([3]; NFM, 50% EL): NS | Crystallization upon dilution in water ([3]; NFM, 50% PC): NS | Crystallization upon dilution in water ([3]; NFM, 95% DMF): + | Crystallization upon dilution in water ([3]; NFM, 95% DMSO): + | Crystallization upon dilution in water ([3]; NFM, 95% EL): NS | Crystallization upon dilution in water ([3]; NFM, 95% PC): NS | Crystallization upon dilution in water ([3]; NPM, 0% DMF): − | Crystallization upon dilution in water ([3]; NPM, 0% DMSO): − | Crystallization upon dilution in water ([3]; NPM, 0% PC): − | Crystallization upon dilution in water ([3]; NPM, 5% DMF): NS | Crystallization upon dilution in water ([3]; NPM, 5% DMSO): NS | Crystallization upon dilution in water ([3]; NPM, 5% PC): NS | Crystallization upon dilution in water ([3]; NPM, 10% DMF): NS | Crystallization upon dilution in water ([3]; NPM, 10% DMSO): NS | Crystallization upon dilution in water ([3]; NPM, 10% PC): NS | Crystallization upon dilution in water ([3]; NPM, 15% DMF): NS | Crystallization upon dilution in water ([3]; NPM, 15% DMSO): NS | Crystallization upon dilution in water ([3]; NPM, 15% PC): NS | Crystallization upon dilution in water ([3]; NPM, 20% DMF): NS | Crystallization upon dilution in water ([3]; NPM, 20% DMSO): NS | Crystallization upon dilution in water ([3]; NPM, 20% PC): NS | Crystallization upon dilution in water ([3]; NPM, 25% DMF): NS | Crystallization upon dilution in water ([3]; NPM, 25% DMSO): − | Crystallization upon dilution in water ([3]; NPM, 25% PC): NS | Crystallization upon dilution in water ([3]; NPM, 30% DMF): − | Crystallization upon dilution in water ([3]; NPM, 30% DMSO): − | Crystallization upon dilution in water ([3]; NPM, 30% PC): NS | Crystallization upon dilution in water ([3]; NPM, 50% DMF): + | Crystallization upon dilution in water ([3]; NPM, 50% DMSO): + | Crystallization upon dilution in water ([3]; NPM, 50% PC): NS | Crystallization upon dilution in water ([3]; NPM, 95% DMF): + | Crystallization upon dilution in water ([3]; NPM, 95% DMSO): + | Crystallization upon dilution in water ([3]; NPM, 95% EL): NS | Crystallization upon dilution in water ([3]; NPM, 95% PC): NS
